Results taken from patent publication US5141627A, “Chelators whose affinity for calcium ion is increased by illumination” (The Regents of the University of California, priority 1989, dated 1992).
Read-outs that look alike come from different tables or passages of the source.

Key:
[1] = Absorbance spectra of free and Ca2+-bound chelators; type: physicochemical
Method: The titration was done at 22° C. with 10 mL of 100 mM KCl, 10 mM K-MOPS, 10 mM K2 H.HEEDTA, and 14 […] diazo-2 as starting materials, adjusting the pH to 7.24, recording the spectrum, and then discarding 1.0 mL of this solution and replacing with 1.0 mL of 100 mM KCl, 10 mM K.MOPS, 10 mM KCa.HEEDTA, 14 μM diazo-2, readjusting the pH to 7.24, and recording the spectra, which was then in 9 mM K2H.HEEDTA. Subsequent iterations to reach n mM KCa.HEEDTA, (10-n) mM HEEDTA, n=2-10, were done by discarding 10.0/(11-n) mL and replacing with equal volumes of the 10mM KCa.HEEDTA, 14 μM diazo-2 stock. After n=10 had been reached to give free Ca^2+ between 10^-5 and 10^-4 M, addition of 1 mM CaCl2 had no further effect on the spectrum. For clarity only six spectra are including in the figure, n=0, 2, 4, 6, 8, and 10. Each spectrum is labeled with the calculated free [Ca^2+ ] imposed by the HEEDTA buffer, assuming a log effective stability constant of 5.55 at pH 7.24.
The phenylacetate was produced by irradiating a 30 μM solution of diazo-2 in 100 mM KCl, 10 mM Tris.HCl, 10 mM K2 H.HEEDTA, pH 8.40, with Spectroline lamp at 365 nm to completion. The titration was then performed as in A but the pH was maintained at 8.40, at which the calculated log effective stability is constant for HEEDTA was 6.60.
Proton magnetic resonance spectra (^1 H NMR) were recorded on a Varian EM-390 90-MHz spectrometer in CDCl3 unless otherwise noted, and the chemical shifts are given in δ values relative to tetramethylsilane. Ultraviolet (UV) absorbance spectra were recorded on a Cary 210 or a Perkin-Elmer Lambda Array 3840 spectrophotometer at 20°±2° C. Melting points are in Centigrade and are uncorrected. Elemental analyses were performed by the Microanalytical Laboratory in the Department of Chemistry, University of California, Berkeley, Calif.

[2] = Mg2+ affinity in Mg/EGTA buffers; type: binding; details: 0.1-0.15M ionic strength, pH 7.0-7.4, 20-23° C.
Method: Ca^2+ -binding constants for chelators before and after photolysis were determined by monitoring UV spectra during titration of EGTA or HEEDTA buffers to varying free Ca^2+ levels.
Free [Mg^2+ ] was likewise controlled by Mg/EGTA buffers, assuming an apparent dissociation constant for the Mg.EGTA complex (including its monoprotonated form) of 6 mM at pH 7.60 in 0.1M ionic strength; see R. Y. Tsien, et al. (1986) and A. E. Martell, et al. (1974).

[3] = Flash photolysis kinetics of carboxylic acid formation (H+ release, cresol red); type: physicochemical; details: pH 8.0, 20° C.; for τ, time constant of phenylacetate formation and H+ release after flash photolysis, free: zero [Ca2+]
Excerpt: When a diazoketone is photolyzed in aqueous solution the major ultimate product is a carboxylic acid. […] Product formation is thus accompanied by proton release generated (Compound 3c, Scheme I). Product formation is thus accompanied by proton release which is readily monitored spectroscopically if a suitable acid-base indicator is used. Cresol red (pKa 8.2) is chosen to monitor proton release following flash photolysis of the diazo compounds in aqueous solutions adjusted to pH 8. […] The absorbance of cresol red at 572 nm decreases with decreasing pH. As the carboxylic acid product, 3c, is generated, the solution acidifies and the transmittance of the sample is expected to rise. […] The chemical structure of the photo-labile chromophore in diazo-3 is essentially identical to that in diazo-2 (FIG. 6, Scheme IV). Correspondingly, flash photolysis of diazo-3 under identical conditions yield experimental traces which were qualitatively the same as those obtained for diazo-2. In Table I is presented the characteristic time constants for carboxylic acid formation following flash photolysis of diazo-2 and diazo-3. Flash photolysis of Ca^2+ -bound diazo-2 produced the carboxylic acid with a characteristic time of 134 μs. The time slowed to 433 μs when Ca^2+ -free diazo-2 was photolyzed.
Diazo-2 was dissolved at 70 μM concentration in 100 mM KCl, 40 μM H4. BAPTA, and enough cresol red to yield OD572 =0.1 after the solution has been adjusted to pH 8. Transmitted light intensity at 572 nm was monitored using an HG-Xe.arc lamp, a monochromator, a photo multiplier and a Biomation transient recorder. Each small division of the ordinate corresponds to 0.002 absorbance unit. The small upward spike at time zero is an optical artifact from the xenon flash lamp. The solid trace is from the sample containing diazo-2. For comparison, the dotted trace is from a photochemically inert sample containing cresol red in 100 mM KCl at pH about 8.
Kinetics of the conversion of diazo-2 and diazo-3 to the carboxylic acid products and the kinetics of Ca^2+ binding by photolyzed diazo-2 were measured by flash photolysis and pH monitoring. The experiments were done in a Dialog apparatus (Garching, FRG) normally used for temperature jumps. The xenon flash lamp was a Model 6100SP7 (Photochemical Research Associates, London, Ontario, Canada) modified to give a light pulse with a full width at half maximum of 85 μs. The output of the xenon lamp was passed through a UG-2 filter to yield broad-band UV radiation in the 330-390 range. Since neither the flash lamp nor the kinetic spectrometer was optimized for light energy, the response amplitudes achieved in the experiments are far from those attainable during a biological experiment. […]

[4] = after photolysis, read-out: Kd (Mg2+), after photolysis

| εmax, +Ca2+ ([1]; +Ca2+, at λmax) | λmax, +Ca2+ ([1]; +Ca2+, dominant peak at longest wavelength) [nm] | εmax, free ([1]; free (zero Ca2+), at λmax) | shift of absorbance to shorter wavelengths on binding Ca2+ ([1]; on binding Ca2+) [nm] | Kd [2, 4] [mM] | Kd ([2]; before photolysis, read-out: Kd (Mg2+), before photolysis) [mM] | λmax, free ([1]; free (zero Ca2+), dominant peak at longest wavelength) [nm] | SMILES | τ, time constant of phenylacetate formation and H+ release after flash photolysis, +Ca2+ ([3]; saturating [Ca2+], additional fast alkalinization component present) [μs] | τ, time constant of phenylacetate formation and H+ release after flash photolysis, free [3] [μs] | τ, time constant of phenylacetate formation and H+ release after flash photolysis, free ([3]; listed as Diazo-3) [μs] |
| --- | --- | --- | --- | --- | --- | --- | --- | --- | --- | --- |
| 20.2 10^-3, M^-1 cm^-1 | 320 | 22.2 10^-3, M^-1 cm^-1 | 50 | 3.4 | 5.5 |  | Cc1ccc(N(CC(=O)O)CC(=O)O)c(OCCOc2cc(C(=O)C=[N+]=[N-])ccc2N(CC(=O)O)CC(=O)O)c1 [diazo-2, 1-(2-bis(carboxymethyl)amino-5-methyl) phenoxy-2-(2-bis(carboxymethyl)amino-5-(diazoacetyl)phenoxy) ethane] | 134 | 433 |  |
|  |  | 22.8 10^-3, M^-1 cm^-1 |  | ~20 |  | 374 | COc1cc(C(=O)C=[N+]=[N-])ccc1N(CC(=O)O)CC(=O)O [diazo-3, 2-methoxy-4-(diazoacetyl)aniline-N, N-diacetic acid] |  | 239 | 238 |
